According to US10092500B2, “Oral care compositions” (BASF SE, priority 2014, dated 2018):

What was measured:
[1] = system: 48 hour saliva biofilms; experiment: Disruption of established 48 hour saliva biofilms; type: cell-based, pooled human saliva; conditions: treatment for 5 minutes; Active = 1000 ppm e-polylysine, Chelate = 0.1% Trilon Ca, Polymer = 1%; negative = increase over control
Procedure: Method to screen combinations of actives, example polymers and chelates to identify potential synergies for biofilm disruption: Polystyrene pegs are pellicle treated with fresh pooled human saliva for 30 minutes at 37° C. aerobically. […] The pegs are added to the growth media and incubated anaerobically 37° C. At 24 hr. the pegs are removed and transferred to a fresh plate containing 200 μl of sterile BHI. And incubated anaerobically for another 24 hr at 37° C. […] Following a 5 minute rinse at room temperature, the pegs are transferred to a treatment plate containing combinations of actives, chelate and polymers. This is followed a 5 minute treatment (shaking at 500 rpm). The treated pegs are transferred to a white 96 well plate containing 200 μl Bac-titer-Glo reagent—this is incubated at room temperature for 5 minutes (shaking) and read on a plate reader for luminescence.

[2] = system: S. mutans (ATCC#25175); experiment: Inhibition of bacterial acid production (Bromo Cresol Purple broth, OD 588/427); type: cell-based; conditions: for Inhibition of bacterial acid production, in words: change of OD 588 / OD 427 (pH indicator)
Procedure: Method to observe the acid production of S. mutans in a medium containing a pH indicator and glucose. Observe how xylitol and the example polymers affect acid production: A culture of S. mutans (ATCC#25175) is grown statically overnight in 10 mL liquid broth (BHI) at 37° C. […] The no treatment control has 20 μl water added. To each experimental well 180 of the inoculated BCP broth is added. To the no inoculum control 20 μl water and 20 μl filter sterilized overnight culture broth are added. […] Both wavelengths are measured every hour for several hours but before evaporation became an issue. The plates are shaken for 10 seconds before reading.

[3] = system: Streptococcus mutans Biofilm; experiment: Substantivity: S. mutans biofilm growth on pre-treated, rinsed hydroxyapatite surfaces; type: cell-based, S. mutans (ATCC#25175); conditions: 24 hr on pre-treated hydroxyapatite
Procedure: Method to evaluate the substantivity of polymers to hydroxy apatite surfaces and the effects these polymers have on the growth of Streptococcus mutans and Saliva derived biofilms: S. mutans (ATCC#25175) is inoculated into 10 mL BHI and incubated statically at 37° C. overnight. […] Hydroxy apatite coated peg lids are pellicle treated with sterile artificial saliva 200 μl/per well of a 96 well clear plate for 30 minutes at 37° C. aerobically. The peg lids are transferred to a clear 96 well plate containing 200 μl of the designated treatments below in Jordan's with 5% sucrose. […] After 30 mins of treatment the two pegs is transferred to a 96 well plate containing 200 μl of water and it is rinsed for 10 min at 500 rpm. […] After incubation the peg lids are transferred to a rinse plate containing 200 μl of water for 5 minutes and then transferred to white 96 well plate containing 200 μl Bac-titer-Glo, this is shaken for 5 minutes and read for luminescence.

[4] = system: Multispecies saliva derived Biofilm; experiment: Substantivity: multispecies saliva derived biofilm growth on pre-treated, rinsed hydroxyapatite surfaces; type: cell-based, human saliva; conditions: 24 hr on pre-treated hydroxyapatite
Procedure: The peg lids are transferred to a clear 96 well plate containing 200 μl of the designated treatments below in Jordan's with 5% sucrose. This peg/plate assembly is shaken for 5 mins and then incubated for 25 mins aerobically at 37 C. After 30 mins of treatment the two pegs is transferred to a 96 well plate containing 200 μl of water and it is rinsed for 10 min at 500 rpm. […] After incubation the peg lids are transferred to a rinse plate containing 200 μl of water for 5 minutes and then transferred to white 96 well plate containing 200 μl Bac-titer-Glo, this is shaken for 5 minutes and read for luminescence.

[5] = system: multispecies saliva biofilm; experiment: Prevention of multispecies saliva biofilm development on hydroxy apatite pegs (Bac-titer-Glo luminescence); type: cell-based, pooled human saliva; conditions: Controls column; 2% xylitol; 24 hr growth
Procedure: To evaluate the multispecies saliva and S. mutans biofilm preventing activity of polymers and control combinations of condensants Hydroxy apatite (HA) coated surfaces of a 96 peg lid (Biosurface Technologies, Bozeman, Mont.) are pellicle treated with pooled human saliva 200 μl/per well of a 96 well clear plate for 30 minutes at 37° C. aerobically. Into each well of the growth plate, clear 96 well plate, 160 μl inoculated Brain Heart Infusion (BHI) broth is added. Test solutions are added to a desired final concentration and water is added to bring the final volume to 200 μl.

[6] = system: Streptococcus mutans biofilm; experiment: Prevention of S. mutans biofilm development on hydroxy apatite pegs (Bac-titer-Glo luminescence); type: cell-based; conditions: Controls column; 2% xylitol; 24 hr growth; negative = increase over control
Procedure: To evaluate the multispecies saliva and S. mutans biofilm preventing activity of polymers and control combinations of condensants S. mutans 25175 is inoculated into 10 mL BHI and incubated statically at 37° C. overnight. […] Hydroxy apatite coated peg lids are pellicle treated with sterile artificial saliva 200 μl/per well of a 96 well clear plate for 30 minutes at 37° C. aerobic. […] Test solutions are added to a desired final concentration and water is added to bring the final volume to 200 μl.

Compound: O=C([O-])CN(CCN(CC(=O)[O-])CC(=O)[O-])CC(=O)[O-].[Ca+2].[Na+].[Na+] [Trilon Ca, Ca EDTA]
- Disruption of 48 hour saliva biofilms, reduction from the No Treatment control [1]: −10%

Compound: O=C(O)CC(O)(CC(=O)O)C(=O)O [citric acid]
- Mean Delta OD588 (stdev) ([2]; 1% treatment, pH 7.0): 0.196 (0.029)
- Inhibition of bacterial acid production, in words [2]: no or little change demonstrating acid inhibiting effects

Compound: O=C(O)CN(CCN(CC(=O)O)CC(=O)O)CC(=O)O [EDTA, ethylenediaminetetraacetic acid]
- Mean Delta OD588 (stdev) ([2]; 1% treatment, pH 7.0): 0.283 (0.086)
- Inhibition of bacterial acid production, in words [2]: no or little change demonstrating acid inhibiting effects

Compound: N=C(N)NCCC[C@H](N)C(=O)O [Arginine, L-arginine]
- % decrease in biofilm as compared to growth control (negative indicates increased biofilm) ([3]; % treatment 0.070%): −40%
- % decrease in biofilm as compared to growth control (negative indicates increased biofilm) ([3]; % treatment 0.140%): −18%
- % decrease in biofilm as compared to growth control (negative indicates increased biofilm) ([3]; % treatment 0.280%): −59%
- % decrease in biofilm as compared to growth control (negative indicates increased biofilm) ([3]; % treatment 0.560%): −53%
- % decrease in biofilm as compared to growth control (negative indicates increased biofilm) ([3]; % treatment 1.120%): −29%
- Mean Delta OD588 (stdev) ([2]; 1% treatment, pH 6.3): 1.054 (0.13)
- Inhibition of bacterial acid production, in words [2]: no acid inhibiting effects
- % decrease in biofilm as compared to growth control (negative indicates increased biofilm) ([4]; % treatment 0.070%): −28%
- % decrease in biofilm as compared to growth control (negative indicates increased biofilm) ([4]; % treatment 0.140%): −20%
- % decrease in biofilm as compared to growth control (negative indicates increased biofilm) ([4]; % treatment 0.280%): −24%
- % decrease in biofilm as compared to growth control (negative indicates increased biofilm) ([4]; % treatment 0.560%): −22%
- % decrease in biofilm as compared to growth control (negative indicates increased biofilm) ([4]; % treatment 1.120%): 49%

Compound: OC[C@@H](O)[C@H](O)[C@@H](O)CO [Xylitol, xylitol]
- % decrease in biofilm as compared to growth control (negative indicates increased biofilm) ([3]; % treatment 1.120%): −11%
- % decrease in biofilm as compared to growth control (negative indicates increased biofilm) ([3]; % treatment 2.000%): −15%
- Prevention of multispecies saliva biofilm development, reduction from the untreated control [5]: 17%
- Mean Delta OD588 (stdev) ([2]; 0.1% treatment): 0.993 (0.099)
- Mean Delta OD588 (stdev) ([2]; 0.5% treatment): 0.841 (0.119)
- Mean Delta OD588 (stdev) ([2]; 1% treatment): 0.759 (0.081)
- Mean Delta OD588 (stdev) ([2]; 2% treatment): 0.734 (0.131)
- Inhibition of bacterial acid production, in words [2]: acid inhibition at all concentrations tested
- % decrease in biofilm as compared to growth control (negative indicates increased biofilm) ([4]; % treatment 1.120%): 14%
- % decrease in biofilm as compared to growth control (negative indicates increased biofilm) ([4]; % treatment 2.000%): 12%
- Prevention of Streptococcus mutans biofilm development, reduction from the untreated control [6]: −1%

Compound: CCCCCCCCCCCCCCCC[n+]1ccccc1 [Cetylpyridinium chloride]
- % decrease in biofilm as compared to growth control (negative indicates increased biofilm) ([3]; % treatment 0.070%): 100%
- % decrease in biofilm as compared to growth control (negative indicates increased biofilm) ([4]; % treatment 0.070%): 98%

Compound: O=C(O)CCC(=O)O [succinic acid]
- Mean Delta OD588 (stdev) ([2]; 1% treatment, pH 7.4): 0.323 (0.107)
- Inhibition of bacterial acid production, in words [2]: no or little change demonstrating acid inhibiting effects
